Laboratory results: the NIST ThermoML archive (doi:10.1021/je800658v)
± gives the expanded uncertainty stated by the source.

Assay: activity coefficient (dimensionless); of the first substance listed, at infinite dilution; xn = mol fraction of the nth substance listed
Conditions: Liquid, x1 = 0
[1] = 303.35 K, inverse gas chromatography
[2] = 312.55 K, inverse gas chromatography
[3] = 322.55 K, inverse gas chromatography
[4] = 332.55 K, inverse gas chromatography

| SMILES | activity coefficient [1] | activity coefficient [2] | activity coefficient [3] | activity coefficient [4] | activity coefficient (303.35 K, Chromatography) | activity coefficient (312.55 K, Chromatography) | activity coefficient (322.55 K, Chromatography) | activity coefficient (332.55 K, Chromatography) |
| --- | --- | --- | --- | --- | --- | --- | --- | --- |
| Cc1ccccc1C [1,2-dimethylbenzene] + CCCCn1cc[n+](C)c1.F[B-](F)(F)F | 6.53 ± 0.39 | 5.55 ± 0.33 | 5.83 ± 0.35 | 4.77 ± 0.29 | – | – | – | – |
| Cc1cccc(C)c1 [1,3-dimethylbenzene] + CCCCn1cc[n+](C)c1.F[B-](F)(F)F | 7.81 ± 0.47 | 7.4 ± 0.44 | 6.89 ± 0.41 | 6.56 ± 0.39 | – | – | – | – |
| Cc1ccc(C)cc1 [1,4-dimethylbenzene] + CCCCn1cc[n+](C)c1.F[B-](F)(F)F | 7.36 ± 0.44 | 6.68 ± 0.4 | 6.71 ± 0.4 | 6.26 ± 0.38 | – | – | – | – |
| C1COCCO1 [1,4-dioxane] + CCCCn1cc[n+](C)c1.F[B-](F)(F)F | 1.26 ± 0.08 | 1.24 ± 0.07 | 1.28 ± 0.08 | 1.22 ± 0.07 | – | – | – | – |
| C#CCCCCC [1-heptyne] + CCCCn1cc[n+](C)c1.F[B-](F)(F)F | 13.2 ± 0.79 | 12.5 ± 0.75 | 11.9 ± 0.72 | 11.7 ± 0.7 | – | – | – | – |
| C#CCCCC [1-hexyne] + CCCCn1cc[n+](C)c1.F[B-](F)(F)F | 8.29 ± 0.5 | 7.53 ± 0.45 | 7.47 ± 0.45 | 6.82 ± 0.41 | – | – | – | – |
| CCC[N+](=O)[O-] [1-nitropropane] + CCCCn1cc[n+](C)c1.F[B-](F)(F)F | 1.54 ± 0.09 | 1.46 ± 0.09 | 1.46 ± 0.09 | 1.5 ± 0.09 | – | – | – | – |
| OCC(F)(F)F [2,2,2-trifluoroethanol] + CCCCn1cc[n+](C)c1.F[B-](F)(F)F | 0.36 ± 0.02 | 0.33 ± 0.02 | 0.32 ± 0.02 | 0.3 ± 0.02 | – | – | – | – |
| CC(C)CC(C)(C)C [2,2,4-trimethylpentane] + CCCCn1cc[n+](C)c1.F[B-](F)(F)F | 321 ± 19 | 231 ± 14 | 198 ± 12 | 272 ± 16 | – | – | – | – |
| CC(C)CO [2-methyl-1-propanol] + CCCCn1cc[n+](C)c1.F[B-](F)(F)F | 4.17 ± 0.25 | 3.99 ± 0.24 | 3.28 ± 0.2 | 2.84 ± 0.17 | – | – | – | – |
| CCC(C)CC [3-methylpentane] + CCCCn1cc[n+](C)c1.F[B-](F)(F)F | 126 ± 7.6 | 94.3 ± 5.7 | 82.9 ± 5 | 152 ± 9.2 | – | – | – | – |
| CC#N [acetonitrile] + CCCCn1cc[n+](C)c1.F[B-](F)(F)F | 0.65 ± 0.04 | 0.63 ± 0.04 | 0.64 ± 0.04 | 0.61 ± 0.04 | – | – | – | – |
| c1ccccc1 [benzene] + CCCCn1cc[n+](C)c1.F[B-](F)(F)F | 2.2 ± 0.13 | 2.17 ± 0.13 | 2.25 ± 0.14 | 2.16 ± 0.13 | – | – | – | – |
| CCCCO [butan-1-ol] + CCCCn1cc[n+](C)c1.F[B-](F)(F)F | 4.74 ± 0.29 | 3.82 ± 0.23 | 3.33 ± 0.2 | 2.69 ± 0.16 | – | – | – | – |
| CCCC=O [butanal] + CCCCn1cc[n+](C)c1.F[B-](F)(F)F | 2.19 ± 0.13 | 2.13 ± 0.13 | 2.15 ± 0.13 | 2.06 ± 0.12 | – | – | – | – |
| CCC(C)=O [butanone] + CCCCn1cc[n+](C)c1.F[B-](F)(F)F | 1.5 ± 0.09 | 1.48 ± 0.09 | 1.44 ± 0.09 | 1.25 ± 0.08 | – | – | – | – |
| C1CCCCCC1 [cycloheptane] + CCCCn1cc[n+](C)c1.F[B-](F)(F)F | 78.7 ± 4.7 | 98.2 ± 5.9 | 131 ± 7.9 | 167 ± 10 | – | – | – | – |
| C1CCCCC1 [cyclohexane] + CCCCn1cc[n+](C)c1.F[B-](F)(F)F | 62.5 ± 3.8 | 48.4 ± 2.9 | 42.7 ± 2.6 | 35.3 ± 2.1 | – | – | – | – |
| ClCCl [dichloromethane] + CCCCn1cc[n+](C)c1.F[B-](F)(F)F | 0.69 ± 0.04 | 0.72 ± 0.04 | 0.79 ± 0.05 | 0.79 ± 0.05 | – | – | – | – |
| CCOCC [diethyl ether] + CCCCn1cc[n+](C)c1.F[B-](F)(F)F | 10.2 ± 0.61 | 9.39 ± 0.56 | 8.18 ± 0.49 | 7.42 ± 0.45 | – | – | – | – |
| CC(C)OC(C)C [diisopropyl ether] + CCCCn1cc[n+](C)c1.F[B-](F)(F)F | 30.7 ± 1.8 | 33.5 ± 2 | 26.9 ± 1.6 | 24.3 ± 1.5 | – | – | – | – |
| CCO [ethanol] + CCCCn1cc[n+](C)c1.F[B-](F)(F)F | 2.15 ± 0.13 | 1.91 ± 0.11 | 1.7 ± 0.1 | 1.53 ± 0.09 | – | – | – | – |

| SMILES | activity coefficient [1] | activity coefficient [2] | activity coefficient [3] | activity coefficient [4] | activity coefficient (303.35 K, Chromatography) | activity coefficient (312.55 K, Chromatography) | activity coefficient (322.55 K, Chromatography) | activity coefficient (332.55 K, Chromatography) |
| --- | --- | --- | --- | --- | --- | --- | --- | --- |
| CCc1ccccc1 [ethylbenzene] + CCCCn1cc[n+](C)c1.F[B-](F)(F)F | 7.25 ± 0.44 | 6.73 ± 0.4 | 6.85 ± 0.41 | 6.51 ± 0.39 | – | – | – | – |
| CCCCCCC [heptane] + CCCCn1cc[n+](C)c1.F[B-](F)(F)F | 259 ± 16 | 250 ± 15 | 216 ± 13 | 142 ± 8.7 | – | – | – | – |
| C=CCCCC [hex-1-ene] + CCCCn1cc[n+](C)c1.F[B-](F)(F)F | 48 ± 2.9 | 39.3 ± 2.4 | 36.3 ± 2.2 | 38.8 ± 2.3 | – | – | – | – |
| CCCCCC [hexane] + CCCCn1cc[n+](C)c1.F[B-](F)(F)F | – | – | – | – | 133 ± 9.1 | 130 ± 9 | 97.4 ± 6.7 | 74.2 ± 5.1 |
| C=O [methanal] + CCCCn1cc[n+](C)c1.F[B-](F)(F)F | 0.22 ± 0.01 | 0.23 ± 0.01 | 0.26 ± 0.02 | 0.25 ± 0.02 | – | – | – | – |
| CO [methanol] + CCCCn1cc[n+](C)c1.F[B-](F)(F)F | 1.22 ± 0.07 | 1.22 ± 0.07 | 1.22 ± 0.07 | 1.18 ± 0.07 | – | – | – | – |
| CC1CCCCC1 [methylcyclohexane] + CCCCn1cc[n+](C)c1.F[B-](F)(F)F | 98.3 ± 5.9 | 82.7 ± 5 | 64.2 ± 3.9 | 57.1 ± 3.4 | – | – | – | – |
| CC1CCCC1 [methylcyclopentane] + CCCCn1cc[n+](C)c1.F[B-](F)(F)F | 62.2 ± 3.7 | 53.5 ± 3.2 | 42.8 ± 2.6 | 55.4 ± 3.3 | – | – | – | – |
| C[N+](=O)[O-] [nitromethane] + CCCCn1cc[n+](C)c1.F[B-](F)(F)F | 0.59 ± 0.04 | 0.56 ± 0.03 | 0.56 ± 0.03 | 0.56 ± 0.03 | – | – | – | – |
| CCCCCCCCC [nonane] + CCCCn1cc[n+](C)c1.F[B-](F)(F)F | 956 ± 57 | 793 ± 48 | 612 ± 37 | 464 ± 28 | – | – | – | – |
| CCCCCCCC [octane] + CCCCn1cc[n+](C)c1.F[B-](F)(F)F | 425 ± 26 | 368 ± 22 | 333 ± 20 | 298 ± 18 | – | – | – | – |
| CCCC(C)=O [pentan-2-one] + CCCCn1cc[n+](C)c1.F[B-](F)(F)F | 2.6 ± 0.16 | 2.6 ± 0.16 | 2.66 ± 0.16 | 2.53 ± 0.15 | – | – | – | – |
| CCC(=O)CC [pentan-3-one] + CCCCn1cc[n+](C)c1.F[B-](F)(F)F | 2.63 ± 0.16 | 2.57 ± 0.15 | 2.66 ± 0.16 | 2.52 ± 0.15 | – | – | – | – |
| CCCO [propan-1-ol] + CCCCn1cc[n+](C)c1.F[B-](F)(F)F | 3.12 ± 0.19 | 2.7 ± 0.16 | 2.43 ± 0.15 | 2.14 ± 0.13 | – | – | – | – |
| CC(C)O [propan-2-ol] + CCCCn1cc[n+](C)c1.F[B-](F)(F)F | 3.2 ± 0.19 | 2.76 ± 0.17 | 2.5 ± 0.15 | 2.15 ± 0.13 | – | – | – | – |
| CCC=O [propanal] + CCCCn1cc[n+](C)c1.F[B-](F)(F)F | 1.38 ± 0.08 | 1.33 ± 0.08 | 1.29 ± 0.08 | 1.21 ± 0.07 | – | – | – | – |
| c1ccncc1 [pyridine] + CCCCn1cc[n+](C)c1.F[B-](F)(F)F | 1 ± 0.06 | 0.99 ± 0.06 | 0.97 ± 0.06 | 0.94 ± 0.06 | – | – | – | – |
| ClC(Cl)(Cl)Cl [tetrachloromethane] + CCCCn1cc[n+](C)c1.F[B-](F)(F)F | 5.53 ± 0.33 | 5.44 ± 0.33 | 5.38 ± 0.32 | 5.2 ± 0.31 | – | – | – | – |
| c1ccsc1 [thiophene] + CCCCn1cc[n+](C)c1.F[B-](F)(F)F | 1.56 ± 0.09 | 1.52 ± 0.09 | 1.54 ± 0.09 | 1.49 ± 0.09 | – | – | – | – |
| Cc1ccccc1 [toluene] + CCCCn1cc[n+](C)c1.F[B-](F)(F)F | 4.37 ± 0.26 | 3.96 ± 0.24 | 3.97 ± 0.24 | 3.84 ± 0.23 | – | – | – | – |
| ClC(Cl)Cl [trichloromethane] + CCCCn1cc[n+](C)c1.F[B-](F)(F)F | 1.04 ± 0.06 | 1.04 ± 0.06 | 1.09 ± 0.07 | 1.09 ± 0.07 | – | – | – | – |
| CCN(CC)CC [triethylamine] + CCCCn1cc[n+](C)c1.F[B-](F)(F)F | 9.44 ± 0.57 | 8.9 ± 0.6 | 35.3 ± 2.2 | 59.4 ± 3.6 | – | – | – | – |
